According to US7893299B2, “Interleukin-1 and tumor necrosis factor-αmodulators; syntheses of such modulators and methods of using such modulators” (Nereus Pharmaceuticals, Inc., priority 2005, dated 2011):
pIC50: −log10 of the molar value.

Columns and labels:
Panc1 and HS766T = experiment: TRAIL resistance of human pancreatic cancer cell lines; format: cell-based
From the text: (§1) Novel diterpene inhibitors of NFκB derived from acanthoic acid (NPI-1342 (Formula IIB-a1) and NPI-1387; compound 24 under scheme 4 above) show measurable effects in human pancreatic cancer cell lines in vitro. Seven of the nine cell lines were moderately sensitive to apoptosis induced by death receptor ligand Tumor Necrosis Factor (TNF) related apoptosis-inducing ligand (TRAIL). […] Specific silencing of NFkB/p65 expression mimicked these effects. Furthermore, combination treatment of Salinosporamide A and either NPI-1342 or NPI-1387 led to induction of apoptosis as measured by PI FACS analysis. Specifically, levels of DNA fragmentation increased from 4% to 50% in HS766T cells and from 4% to 52% in Panc1 cells. The inhibitory effects of NPI-1342, NPI-1387 on NFκB were evaluated by Electromobility Shift Assays and confirmed by confocal microscopy.

MM cells = experiment: apoptosis of MM cells (DAPI, PARP cleavage, caspases); format: cell-based
Procedure: (§2) Transcription factor NF-KB is linked to growth and survival of multiple myeloma (MM) cells and blockade of NF-KB activity. NPI-1387 (Formula IIB-b1; compound 24 shown above under scheme 4), a potent small-molecule inhibitor of upstream activator of NF-KB, was administered to MM cells and its effect on the viability of MM cells, including those resistant to conventional agents dexamethasone or doxorubicin is shown.
Besides nuclear condensation, NF-KB inhibitor triggered proteolytic cleavage of poly (ADP ribose) polymerase (PARP), a hallmark of apoptosis.
Both caspase-8 and caspase-9 activate downstream caspase-3. […] Collectively, these findings show the efficacy of NF-KB inhibitor to enhance MM cell killing, overcome drug-resistance, and improve patient outcome in MM.

[1] = tested on: TNF-α induced nuclear factor-κB (NF-κB) activation; experiment: HEK293 NF-κB/Luciferase reporter cell line; format: cell-based
[2] = tested on: MM cells with IL-6 or IGF-1; experiment: protective effects of MM bone marrow microenvironment; format: cell-based
[3] = tested on: MM cell lines (MM.1S, MM.1R, OCI-MyS, OPM-1, Dox-40); experiment: viability of MM cell lines (MM.1S, MM.1R, OCI-MyS, OPM-1, Dox-40); format: cell-based; conditions: 48 h; all cell lines; read-out: IC50 range, decrease in cell viability
Procedure: as §2

HS766T cells = experiment: apoptosis by PI FACS analysis, HS766T; format: cell-based, human; conditions: combination treatment with Salinosporamide A, increased from 4%
From the text: as §1

IκBα phosphorylation = experiment: phosphorylation level of IκBα in LPS-stimulated HPBMC (western blot); format: cell-based, Human; conditions: 13 μM, 20 ng/ml LPS, compared with DMSO control
Procedure: One ml/well of 3×10^6/ml HPBMC were seeded in 6-well plate in LGM-3 medium and cultured for 12 hr at 37° C., 5% CO2 and 95% humidified air. Final concentration of 13 μM for formula (IIB-A1) (or 10 μM for TTL3) was added to HPBMC for 1 hr. DMSO was used as a control. Cells were then stimulated with 20 ng/ml LPS diluted in LGM-3 medium from 1 mg/ml stock solution for 30 min, 1 hr, 2 hr and 4 hr. At the end of each time point, cells were harvested by centrifugation and cell pellets were washed once in ice-cold 1× Dulbecco's Phosphate buffered Saline (DPBS). To prepare samples for SDS Polyacrylamide Gel Electrophoresis (SDS-PAGE), cells were lysed in RIPA buffer (50 mM Tris-HCl, pH7.4, 0.9% NaCl, 1% Triton X-100, 0.25% Na-deoxycholate, 1 mM EDTA, 2 mM Na3VO4 and 1× protease inhibitors cocktail) for 15 min on ice. Cell lysates were cleared by centrifugation at 14,000 rpm, 4° C. for 10 min. Protein concentrations of cell lysates were determined by BCA protein assay kit prior to SDS-PAGE. Equal amount of proteins from various cell lysates were resolved on 10% NuPage MES precast gels and transferred to nitrocellulose membranes according to the manufacturer's instructions. […]

LPS/D-Gal administration = experiment: mortality after LPS/D-Gal administration; format: in vivo; conditions: i.p., TTL3 administration 45 minutes prior to LPS

SMILES: C=CC(=O)C1(C)CCCC2(C)C3=CCC(C)(C=C)C[C@@H]3CC[C@H]12 (stereo in doubt) [NPI-1387, 1-[(1S,4aS,7R)-1,4a,7-Trimethyl-7-vinyl-1,2,3,4,4a,6,7,8,8a,9,10,10a-dodecahydro-1-phenanthrenyl]-2-propen-1-one]
- TRAIL resistance (Panc1 and HS766T): reversed TRAIL resistance
- Apoptic signaling in MM cells, intrinsic and extrinsic pathways (MM cells): triggered by NPI-1387
- caspase activation (MM cells; 25 μM): induces activation of caspase-8, caspase-9, followed by caspase-3 cleavage
- apoptosis (nuclear condensation, PARP cleavage) (MM cells; respective IC50 for 48 h): significant apoptosis
- TNF-α induced NF-κB activation [1]: reduced TNF-α induced nuclear factor-κB (NF-κB) activation
- protective effects of IL-6 or IGF-1 [2]: does overcome the protective effects of IL-6 or IGF-1
- pIC50 [3]: 4.40 to 4.60
- levels of DNA fragmentation (HS766T cells): 50%

SMILES: C=C[C@@]1(C)CCC=C2[C@H]1CC[C@@H]1[C@](C)(C(=O)NC3CCCCC3)CCC[C@@]21C [Formula (IIB-A1), N-Cyclohexylamide Derivative of TTL]
- level of IκBα phosphorylation in LPS-stimulated HPBMC (IκBα phosphorylation; listed as Formula (IIB-a1)): decrease
- level of IκBα phosphorylation in LPS-stimulated HPBMC (IκBα phosphorylation; listed as formula (IIB-A1)): effectively inhibited

SMILES: C=C[C@@]1(C)CCC=C2[C@H]1CC[C@@H]1[C@](C)(C(=O)OC)CCC[C@@]21C [TTL3]
- Mortality 24 hours (LPS/D-Gal administration): 2/10
- Mortality 48 hours (LPS/D-Gal administration): 2/10
